Assay results reported in the supplement of paper PMC8612539.
≈ marks a conversion by molar mass, not a printed value.

System: Histophilus somni
Assay: minimum inhibitory concentration (MIC)
Method: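 Broth microdilution MIC (Sensititre BOPO7F bovine plate, CLSI methods) of 19 antimicrobials against field isolates of P. multocida, M. haemolytica, H. somni (deep nasopharyngeal swabs) and E. coli, Enterococcus spp. (rectal swabs) from weaned dairy heifers. Incubation 16-24 h at 35 C. MIC is the lowest concentration preventing visible growth. Values with <= or > lie at the tested range limits. Trimethoprim-sulfamethoxazole is given as the trimethoprim component of a 1:19 mixture.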

CNC(C)C1CCC(N)C(OC2C(N)CC(N)C(OC3OCC(C)(O)C(NC)C3O)C2O)O1 (configuration not stated) [Gentamicin]
Conditions | minimum inhibitory concentration [µg/mL]
isolate (source animal id): 3 | 8 (≈ 16.8 µM)
isolate (source animal id): 4 | 8 (≈ 16.8 µM)
isolate (source animal id): 7 | 4 (≈ 8.38 µM)
isolate (source animal id): 14 | 4 (≈ 8.38 µM)
isolate (source animal id): 15 | 16 (≈ 33.5 µM)
isolate (source animal id): 17 | ≤ 1
isolate (source animal id): 18 | 16 (≈ 33.5 µM)
isolate (source animal id): 20 | ≤ 1
isolate (source animal id): 23 | 16 (≈ 33.5 µM)
isolate (source animal id): 45 | 4 (≈ 8.38 µM)
isolate (source animal id): 53 | 4 (≈ 8.38 µM)
isolate (source animal id): 83 | 16 (≈ 33.5 µM)
isolate (source animal id): 88 | 4 (≈ 8.38 µM)
isolate (source animal id): 92 | 16 (≈ 33.5 µM)
isolate (source animal id): 93 | 4 (≈ 8.38 µM)
isolate (source animal id): 99 | 16 (≈ 33.5 µM)
isolate (source animal id): 100 | 16 (≈ 33.5 µM)
isolate (source animal id): 105 | 16 (≈ 33.5 µM)
isolate (source animal id): 107 | 16 (≈ 33.5 µM)
isolate (source animal id): 108 | 16 (≈ 33.5 µM)
isolate (source animal id): 109 | 16 (≈ 33.5 µM)
isolate (source animal id): 110 | 16 (≈ 33.5 µM)
isolate (source animal id): 117 | 4 (≈ 8.38 µM)
isolate (source animal id): 121 | 4 (≈ 8.38 µM)
isolate (source animal id): 123 | 8 (≈ 16.8 µM)
isolate (source animal id): 124 | 8 (≈ 16.8 µM)
isolate (source animal id): 127 | 8 (≈ 16.8 µM)
isolate (source animal id): 128 | 8 (≈ 16.8 µM)
isolate (source animal id): 130 | > 16
isolate (source animal id): 132 | 8 (≈ 16.8 µM)
isolate (source animal id): 135 | 8 (≈ 16.8 µM)
isolate (source animal id): 140 | 8 (≈ 16.8 µM)
isolate (source animal id): 141 | 4 (≈ 8.38 µM)
isolate (source animal id): 142 | 8 (≈ 16.8 µM)
isolate (source animal id): 144 | 8 (≈ 16.8 µM)
isolate (source animal id): 146 | > 16
isolate (source animal id): 147 | 16 (≈ 33.5 µM)
isolate (source animal id): 151 | 8 (≈ 16.8 µM)
isolate (source animal id): 153 | 8 (≈ 16.8 µM)
isolate (source animal id): 154 | 16 (≈ 33.5 µM)
isolate (source animal id): 156 | 16 (≈ 33.5 µM)
isolate (source animal id): 157 | 8 (≈ 16.8 µM)
isolate (source animal id): 176 | ≤ 1
isolate (source animal id): 183 | ≤ 1
isolate (source animal id): 186 | ≤ 1
isolate (source animal id): 196 | 8 (≈ 16.8 µM)
isolate (source animal id): 198 | 8 (≈ 16.8 µM)
isolate (source animal id): 200 | 8 (≈ 16.8 µM)
isolate (source animal id): 206 | 8 (≈ 16.8 µM)
isolate (source animal id): 208 | 8 (≈ 16.8 µM)
isolate (source animal id): 210 | 8 (≈ 16.8 µM)
isolate (source animal id): 212 | 4 (≈ 8.38 µM)
isolate (source animal id): 215 | 8 (≈ 16.8 µM)
isolate (source animal id): 216 | 8 (≈ 16.8 µM)
isolate (source animal id): 218 | 8 (≈ 16.8 µM)
isolate (source animal id): 219 | 8 (≈ 16.8 µM)
isolate (source animal id): 224 | 8 (≈ 16.8 µM)
isolate (source animal id): 228 | 2 (≈ 4.19 µM)
isolate (source animal id): 230 | ≤ 1
isolate (source animal id): 233 | 2 (≈ 4.19 µM)
isolate (source animal id): 238 | ≤ 1
isolate (source animal id): 239 | 2 (≈ 4.19 µM)
isolate (source animal id): 241 | 2 (≈ 4.19 µM)
isolate (source animal id): 242 | 2 (≈ 4.19 µM)
isolate (source animal id): 243 | ≤ 1
isolate (source animal id): 245 | ≤ 1
isolate (source animal id): 246 | 2 (≈ 4.19 µM)
isolate (source animal id): 247 | ≤ 1
isolate (source animal id): 248 | ≤ 1
isolate (source animal id): 250 | ≤ 1
isolate (source animal id): 251 | ≤ 1
isolate (source animal id): 252 | 2 (≈ 4.19 µM)
isolate (source animal id): 254 | ≤ 1
isolate (source animal id): 258 | 4 (≈ 8.38 µM)
isolate (source animal id): 259 | 8 (≈ 16.8 µM)
isolate (source animal id): 262 | 4 (≈ 8.38 µM)
isolate (source animal id): 264 | 4 (≈ 8.38 µM)
isolate (source animal id): 265 | > 16
isolate (source animal id): 266 | 8 (≈ 16.8 µM)
isolate (source animal id): 267 | 8 (≈ 16.8 µM)
isolate (source animal id): 269 | 4 (≈ 8.38 µM)
isolate (source animal id): 271 | 8 (≈ 16.8 µM)
isolate (source animal id): 272 | > 16
isolate (source animal id): 274 | 4 (≈ 8.38 µM)
isolate (source animal id): 276 | ≤ 1
isolate (source animal id): 278 | 8 (≈ 16.8 µM)
isolate (source animal id): 280 | > 16
isolate (source animal id): 281 | 8 (≈ 16.8 µM)
isolate (source animal id): 283 | 4 (≈ 8.38 µM)
isolate (source animal id): 288 | 16 (≈ 33.5 µM)
isolate (source animal id): 291 | 8 (≈ 16.8 µM)
isolate (source animal id): 292 | 16 (≈ 33.5 µM)
isolate (source animal id): 296 | 8 (≈ 16.8 µM)
isolate (source animal id): 306 | 8 (≈ 16.8 µM)
isolate (source animal id): 336 | 16 (≈ 33.5 µM)
isolate (source animal id): 337 | 16 (≈ 33.5 µM)
isolate (source animal id): 341 | 8 (≈ 16.8 µM)
